Assay: Binding affinity for rat imidazoline receptor I-1 from crude P2 membranes

- Ki: 10 nM
SMILES: C(=C\c1ccccc1)/C1=NCCN1 [2-((E)-Styryl)-4,5-dihydro-1H-imidazole]
